The values that follow come from patent publication US20240279231A1, “MAP4K4 INHIBITORS AND METHODS OF SYNTHESIS AND USE THEREOF” (The Board of Regents of the University of Oklahoma, priority 2021, published 2024).

In data set [1] the target is T1, recombinant MAP4K4 enzyme (Homo sapiens, UniProt O95819).
T1 construct: purchased BioAssay Systems Services (Hayward, CA)
In words: MAP4K4 inhibition assay (cell free, MBP substrate, ADP detection). In kind it is biochemical. The conditions noted are these: for IC50: recombinant MAP4K4, MBP substrate, 48 μM ATP, compounds titrated from 900 nM, read-out: concentration for 50% inhibition of MAP4K4 (IC50). As for the experimental part:
MAP4K4 inhibition assay: MAP4K4 assay for IC50 determination was performed using a kit by BioAssay Systems Services (Hayward, CA). Briefly, MAP4K4 in assay buffer (40 ng in 10 μL) was incubated with varying concentrations of test compounds (5 μL in dimethylsulfoxide) for 15 min at 37° C. The compounds were titrated from 900 nM (final reaction concentration) in 3× steps. Compound dilutions were made in assay buffer with 0.036% dimethylsulfoxide. Reactions were initiated by adding 5 μL reaction mix (2.6 μg/μL MBP, 193 μM ATP; final reaction concentration of 13 μg MBP, 48 μM ATP) and run at 37° C. for 20 min. These kinase reactions were stopped with an ADP detection reagent and fluorescence was measured at 530Ex/590Em. IC50 was computed using GraphPad Prism Nonlinear Sigmoidal Dose-Response fitting.
MAP4K4 inhibition assay: The MAP4K4 inhibitory activity of DMX-5804, Ribose-analog 9, and regio-isomer 7 were examined in a cell free assay using recombinant MAP4K4 enzyme and myelin basic protein (MBP) as its substrate.

The nature of data set [2]: Solubility in polar solvents. In kind it is physicochemical. The following applies: compared with DMX-5804. As for the experimental part:
(§1) First, we attempted base-catalyzed O-alkylation in a variety of conditions (Table 1). […] We also screened various solvents combined with different bases to get DMX-5804. […] However, DMX-5804 was obtained only in small amounts (5-7%), whereas compound 7 was isolated as the major product (88%). To check the stability of compound 7, we refluxed it in dioxane-HCl for 6 h. […] Also, its HPLC retention time was identical to that of DMX-5804 (data not shown).

Data set [3] in a line: Stability on reflux in dioxane-HCl. The data set is classed as physicochemical. The conditions noted are these: refluxed in dioxane-HCl for 6 h. As for the experimental part: as §1
A short description of data set [4]: Solubility in aqueous medium. In kind it is physicochemical. The source says: In order to shift alkylation to desired phenolic site, we changed reaction conditions to acidic by using boron trifluoride diethyl etherate as a Lewis acid (entries 9-11 of Table 1). […] Hypothesizing that the relatively low separated yields of this reaction are due to the insolubility of phenolic derivative in dichloromethane, we decided to perform this reaction in neat conditions with BF3OEt2. This modification produced satisfactory yields of DMX-5804 (entry 10). Further, we added excess of methylglycol as a solvent as well as a reactant in presence of BF3OEt2 to obtain quantitative yields of DMX-5804 in good time (entry 11). In these acidic conditions, the other regioisomer (pyrimidine alkylated compound 7) was completely absent. Previously, the use of BF3OEt2 for phenolic alkylation has been reported. In addition to the compound DMX-5804, we employed this route for synthesis of ribose- and glucose-conjugated analogs. […]

For data set [5] the following is noted: compared with F1386-0303; cited from earlier work.
For data set [6] the following is noted: mouse infarct model; cited from earlier work.
Data set [7] concerns cardiomyocyte. The conditions noted are these: oxidative stress-induced, in vitro and in vivo; cited from earlier work.

The structures appear in SMILES notation.

T1 sequence (O95819 whole entry): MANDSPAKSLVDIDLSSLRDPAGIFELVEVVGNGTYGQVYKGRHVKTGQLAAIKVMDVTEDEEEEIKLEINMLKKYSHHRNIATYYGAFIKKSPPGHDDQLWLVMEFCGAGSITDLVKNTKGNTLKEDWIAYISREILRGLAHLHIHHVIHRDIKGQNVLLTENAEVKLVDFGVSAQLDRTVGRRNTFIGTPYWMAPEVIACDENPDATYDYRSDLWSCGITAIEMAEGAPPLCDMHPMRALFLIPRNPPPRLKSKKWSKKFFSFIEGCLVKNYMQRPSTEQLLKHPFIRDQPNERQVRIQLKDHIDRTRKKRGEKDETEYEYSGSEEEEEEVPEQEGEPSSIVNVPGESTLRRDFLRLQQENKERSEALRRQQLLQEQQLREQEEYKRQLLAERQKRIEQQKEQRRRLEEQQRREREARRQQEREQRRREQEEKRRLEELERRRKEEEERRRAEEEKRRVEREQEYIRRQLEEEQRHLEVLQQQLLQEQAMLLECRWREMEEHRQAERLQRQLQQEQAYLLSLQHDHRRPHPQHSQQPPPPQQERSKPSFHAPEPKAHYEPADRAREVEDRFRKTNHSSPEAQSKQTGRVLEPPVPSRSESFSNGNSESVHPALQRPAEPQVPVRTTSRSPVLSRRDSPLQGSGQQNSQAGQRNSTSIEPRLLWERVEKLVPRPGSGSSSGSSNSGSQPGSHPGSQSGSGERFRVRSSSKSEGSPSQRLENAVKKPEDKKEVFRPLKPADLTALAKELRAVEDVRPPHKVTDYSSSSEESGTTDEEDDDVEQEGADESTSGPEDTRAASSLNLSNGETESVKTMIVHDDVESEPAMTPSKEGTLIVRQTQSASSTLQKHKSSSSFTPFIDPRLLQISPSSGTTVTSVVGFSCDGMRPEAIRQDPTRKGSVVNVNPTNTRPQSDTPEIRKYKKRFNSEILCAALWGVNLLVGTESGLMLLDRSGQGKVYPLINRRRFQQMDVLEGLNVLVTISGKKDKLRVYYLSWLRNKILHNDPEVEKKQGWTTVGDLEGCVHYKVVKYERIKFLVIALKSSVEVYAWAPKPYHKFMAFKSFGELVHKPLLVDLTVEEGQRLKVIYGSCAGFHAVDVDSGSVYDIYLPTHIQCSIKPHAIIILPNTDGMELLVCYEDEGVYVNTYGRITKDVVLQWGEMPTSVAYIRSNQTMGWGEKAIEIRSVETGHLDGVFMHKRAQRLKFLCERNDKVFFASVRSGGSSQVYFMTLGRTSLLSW

`COCCOc1ncnc2c1c(-c1ccc(O)cc1)cn2-c1ccccc1` (single isomer, unassigned) [Compound 7, 4-(4-(2-methoxyethoxy)-7-phenyl-7H-pyrrolo[2,3-d]pyrimidin-5-yl)phenol] had a melting point of 221 to 224 °C. For the same compound, the MAP4K4 inhibitory activity result in data set [1] (concentration range tested (titrated from 900 nM in 3× steps)) was “no inhibitory activity in the concentration range tested”. The “solubility in polar solvents” value in data set [2] is “significantly better than DMX-5804”. Besides, in data set [3], the “stability in acidic conditions” value is on record as “stable in acidic conditions”.
As to `O=c1[nH]cnc2c1c(-c1ccc(OC3OC(CO)C(O)C3O)cc1)cn2-c1ccccc1` (stereo not shown) [Compound 9, 5-(4-((3,4-dihydroxy-5-(hydroxymethyl)tetrahydrofuran-2-yl)oxy)phenyl)-7-phenyl-3,7-dihydro-4H-pyrrolo[2,3-d]pyrimidin-4-one], the IC50 in data set [1] came to 256 nM.
As for `COCCOc1ccc(-c2cn(-c3ccccc3)c3nc[nH]c(=O)c23)cc1` [DMX-5804, 5-(4-(2-methoxyethoxy)phenyl)-7-phenyl-3,7-dihydro-4H-pyrrolo[2,3-d]pyrimidin-4-one], the IC50 in data set [1] was determined as 206 nM. In addition, in data set [4], the “solubility in aqueous medium” value is given as “virtually insoluble”. The bioavailability in vivo result in data set [5] is listed as “better bioavailability in vivo than F1386-0303”. The infarct size result in data set [6] is on record as “significant reduction of infarct size”. In addition, the cardiomyocyte death entry in data set [7] is “reduces cardiomyocyte death both in vitro and in vivo”.
